Experimental data as given in BindingDB's records for doi:10.1016/j.ejmech.2018.08.069 (Kanazawa University, 2018).

Experiment: Antagonist activity at AR in human LNCAP cells assessed as reduction in DHT-induced cell growth treated for every 2 days for 4 days by hemocytometry

SMILES | IC50 [µM]
O=C(/C=C/c1ccccc1O)c1cc(Cl)ccc1O | 3.74
CC(C)Oc1ccccc1/C=C/C(=O)c1cc(Br)ccc1O | 9.11
COc1ccc(O)c(C(=O)/C=C/c2ccccc2OC)c1 | > 10

Other lines, results leading:

IC50 [µM] | SMILES
6.4 | O=C1CC(c2ccccc2O)Oc2ccccc21 (stereo not given) [2-(2-Hydroxy-phenyl)-chroman-4-one]
> 10 | O=c1cc(-c2ccccc2O)oc2ccccc12 [2-(2-Hydroxyphenyl)-4H-chromen-4-one (3d)]
